The values below come from US10077264B2, “Derivatives and methods of treating hepatitis B infections” (Novira Therapeutics, Inc., priority 2014, dated 2018).

The first assay relates to HBV replication in HepG2.2.15 cells. As to the kind of experiment: HBV replication inhibition assay (BDNA assay). Type of assay: cell-based. To be noted: Hepatitis B virus, 144 h; HepG2.2.15 cells, 10 μM, 6 days, encapsidated HBV DNA in supernatant; read-out: Activity in BDNA-assay (activity at 10 μM). From the text:
HBV replication inhibition by the compounds of this invention could be determined in cells infected or transfected with HBV, or cells with stably integrated HBV, such as HepG2.2.15 cells (Sells et al. 1987). In this example, HepG2.2.15 cells were maintained in cell culture medium containing 10% fetal bovine serum (FBS), Geneticin, L-glutamine, penicillin and streptomycin. HepG2.2.15 cells could be seeded in 96-well plates at a density of 40,000 cells/well and be treated with serially diluted compounds at a final DMSO concentration of 0.5% either alone or in combination by adding drugs in a checker box format. Cells were incubated with compounds for three days, after which medium was removed and fresh medium containing compounds was added to cells and incubated for another three days. At day 6, supernatant was removed and treated with DNase at 37° C. for 60 minutes, followed by enzyme inactivation at 75° C. for 15 minutes. Encapsidated HBV DNA was released from the virions and covalently linked HBV polymerase by incubating in lysis buffer (Affymetrix QS0010) containing […] proteinase K at 50° C. for 40 minutes. HBV DNA was denatured by addition of 0.2 M NaOH and detected using a branched DNA (BDNA) QuantiGene assay kit according to manufacturer recommendation (Affymetrix). HBV DNA levels could also be quantified using qPCR, based on amplification of encapsidated HBV DNA extraction with QuickExtraction Solution (Epicentre Biotechnologies) and amplification of HBV DNA using HBV specific PCR probes that can hybridize to HBV DNA and a fluorescently labeled probe for quantitation. In addition, cell viability of HepG2.2.15 cells incubated with test compounds alone or in combination was determined by using CellTitre-Glo reagent according to the manufacturer protocol (Promega). The mean background signal from wells containing only culture medium was subtracted from all other samples, and percent inhibition at each compound concentration was calculated by normalizing to signals from HepG2.2.15 cells treated with 0.5% DMSO using equation E1. % inhibition=(DMSOave−Xi)/DMSOave×100% E1: • where DMSOave is the mean signal calculated from the wells that were treated with DMSO control (0% inhibition control) and Xi is the signal measured from the individual wells. EC50 values, effective concentrations that achieved 50% inhibitory effect, were determined by non-linear fitting using Graphpad Prism software (San Diego, Calif.) and equation E2 Y=Ymin+(Ymax−Ymin)/(1+10(Log EC50−X)×HillSlope) E2: • where Y represents percent inhibition values and X represents the logarithm of compound concentrations.
Selected compounds of the invention were assayed in the HBV replication assay (BDNA assay), as described above and a representative group of these active compounds is shown in Table 3.
On to `N#Cc1ccc(OCC(=O)N2CCc3[nH]nc(-c4ccccc4)c3C2)cc1` [Compound 156], for which the inhibition at 10 µM is greater than 50%.
The same measure, in the same setting: the result for `O=C(COc1ccccc1C(F)(F)F)N1CCc2[nH]nc(-c3ccccc3)c2C1` [Compound 163] reads greater than 50%; that for `O=C(COc1cccc(C(F)(F)F)c1)N1CCc2[nH]nc(-c3ccccc3)c2C1` [Compound 164], greater than 50%; that for `O=C(COc1ccc(C(F)(F)F)cc1)N1CCc2[nH]nc(-c3ccccc3)c2C1` [Compound 165], greater than 50%.
Consider `O=C(C1COc2ccccc2O1)N1CCc2[nH]nc(-c3ccccc3)c2C1` (stereo not shown) [Compound 171], for which the inhibition at 10 µM was greater than 50%.
On the same count and under the same terms, the result for `N#Cc1ccc(Cl)cc1NC(=O)N1CCc2[nH]nc(-c3ccccc3)c2C1` [Compound 201] reads greater than 50%.
Turning to `O=C(Nc1ccc(Br)c(Cl)c1)N1CCc2[nH]nc(-c3ccccc3)c2C1` [Compound 204], the inhibition at 10 µM was greater than 50%.
The same measure, in the same setting: the result for `O=C(Nc1cc(Cl)ccc1F)N1CCc2[nH]nc(-c3ccccc3)c2C1` [Compound 214] reads greater than 50%.
The same measure, in the same setting: under `O=C(Nc1cnc(Cl)c(Cl)c1)N1CCc2[nH]nc(-c3ccccc3)c2C1` [Compound 226] stands greater than 50%; under `O=C(Nc1cccc(Cl)c1)N1CCc2[nH]nc(-c3cccc(F)c3)c2C1` [Compound 277, N-(3-chlorophenyl)-3-(3-fluorophenyl)-1,4,6,7-tetrahydropyrazolo[4,3-c]pyridine-5-carboxamide], greater than 50%; under `Cc1ccc(-c2n[nH]c3c2CN(C(=O)Nc2cccc(Cl)c2)CC3)cc1` [Compound 281, N-(3-chlorophenyl)-3-(p-tolyl)-1,4,6,7-tetrahydropyrazolo[4,3-c]pyridine-5-carboxamide], greater than 50%.

Staying with this assay, now noted: Hepatitis B virus, HepG2.2.15, 144 h, HepG2.2.15 cells, 6 days, encapsidated HBV DNA in supernatant; read-out: Activity in BDNA-assay (EC50).
Take `O=C(Nc1cccc(Cl)c1Cl)N1CCc2[nH]nc(-c3ccccc3)c2C1` [Compound 190]: the EC50 is 500 to 1000 nM.
Still for that read-out and setting: under `O=C(Nc1cc(Cl)ccc1Cl)N1CCc2[nH]nc(-c3ccccc3)c2C1` [Compound 191] stands 500 to 1000 nM; under `Cc1c(Cl)cccc1NC(=O)N1CCc2[nH]nc(-c3ccccc3)c2C1` [Compound 192], 100 to 500 nM.
For the molecule `O=C(Nc1ccc(F)c(Cl)c1F)N1CCc2[nH]nc(-c3ccccc3)c2C1` [Compound 205], the EC50 was in the range of 100 to 500 nM.
Same read-out and setting: under `O=C(Nc1cccc(Cl)c1)N1CCc2[nH]nc(-c3ccccc3F)c2C1` [Compound 276, N-(3-chlorophenyl)-3-(2-fluorophenyl)-1,4,6,7-tetrahydropyrazolo[4,3-c]pyridine-5-carboxamide] stands 100 to 500 nM.
Same read-out and setting: under `O=C(Nc1cccc(Cl)c1)N1CCc2[nH]nc(-c3ccc(F)cc3)c2C1` [Compound 278, N-(3-chlorophenyl)-3-(4-fluorophenyl)-1,4,6,7-tetrahydropyrazolo[4,3-c]pyridine-5-carboxamide] stands 100 to 500 nM; under `Cc1ccccc1-c1n[nH]c2c1CN(C(=O)Nc1cccc(Cl)c1)CC2` [Compound 279, N-(3-chlorophenyl)-3-(o-tolyl)-1,4,6,7-tetrahydropyrazolo[4,3-c]pyridine-5-carboxamide], 100 to 500 nM; under `Cc1cccc(-c2n[nH]c3c2CN(C(=O)Nc2cccc(Cl)c2)CC3)c1` [Compound 280, N-(3-chlorophenyl)-3-(m-tolyl)-1,4,6,7-tetrahydropyrazolo[4,3-c]pyridine-5-carboxamide], 100 to 500 nM.
The same measure, in the same setting: under `O=C(Nc1cccc(Cl)c1)N1CCc2[nH]nc(-c3cccnc3)c2C1` [Compound 286, N-(3-chlorophenyl)-3-(3-pyridyl)-1,4,6,7-tetrahydropyrazolo[4,3-c]pyridine-5-carboxamide] stands 500 to 1000 nM; under `O=C(Nc1cccc(Cl)c1)N1CCc2[nH]nc(-c3ccncc3)c2C1` [Compound 287], 100 to 500 nM; under `O=C(Nc1cccc(Cl)c1)N1CCc2[nH]nc(-c3ncccn3)c2C1` [Compound 289, N-(3-chlorophenyl)-3-pyrimidin-2-yl-1,4,6,7-tetrahydropyrazolo[4,3-c]pyridine-5-carboxamide], 10 to 100 nM.
As to `O=C(Nc1cccc(Cl)c1)N1CCc2[nH]nc(-c3cccnn3)c2C1` [Compound 290], the EC50 is 10 to 100 nM.
Same read-out and setting: the result for `O=C(Nc1cccc(Cl)c1)N1CCc2[nH]nc(-c3cncnc3)c2C1` [Compound 291, N-(3-chlorophenyl)-3-pyrimidin-5-yl-1,4,6,7-tetrahydropyrazolo[4,3-c]pyridine-5-carboxamide] reads 100 to 500 nM; that for `COc1cccc(-c2n[nH]c3c2CN(C(=O)Nc2cccc(Cl)c2)CC3)c1` [Compound 326, N-(3-chlorophenyl)-3-(3-methoxyphenyl)-1,4,6,7-tetrahydropyrazolo[4,3-c]pyridine-5-carboxamide], 100 to 500 nM.
On to `COc1ccccc1-c1n[nH]c2c1CN(C(=O)Nc1cccc(Cl)c1)CC2` [Compound 327, N-(3-chlorophenyl)-3-(2-methoxyphenyl)-1,4,6,7-tetrahydropyrazolo[4,3-c]pyridine-5-carboxamide], for which the EC50 lay within 100 to 500 nM.
On the same count and under the same terms, under `CC1CCCC(NC(=O)N2CCc3[nH]nc(-c4ccccc4)c3C2)C1` (stereo not shown) [Compound 436] stands 500 to 1000 nM; under `O=C(Nc1cccc(Cl)c1)N1CCc2[nH]nc(-c3cccnc3F)c2C1` [Compound 472, N-(3-chlorophenyl)-3-(2-fluoro-3-pyridyl)-1,4,6,7-tetrahydropyrazolo[4,3-c]pyridine-5-carboxamide], 100 to 500 nM.
As for `O=C(Nc1cccc(Cl)c1)N1CCc2[nH]nc(-c3ccc(F)nc3)c2C1` [Compound 473, N-(3-chlorophenyl)-3-(6-fluoro-3-pyridyl)-1,4,6,7-tetrahydropyrazolo[4,3-c]pyridine-5-carboxamide], the concentration for a half-maximal effect (EC50) lay in the range of 500 to 1000 nM.
Still for that read-out and setting: under `Cn1cc(-c2n[nH]c3c2CN(C(=O)Nc2cccc(Cl)c2)CC3)cn1` [Compound 495, N-(3-chlorophenyl)-3-(1-methylpyrazol-4-yl)-1,4,6,7-tetrahydropyrazolo[4,3-c]pyridine-5-carboxamide] stands 1000 to 1500 nM; under `Cn1nccc1-c1n[nH]c2c1CN(C(=O)Nc1cccc(Cl)c1)CC2` [Compound 496], 100 to 500 nM.
Still for that read-out and setting: the result for `O=C(Nc1cccc(Cl)c1)N1CCc2[nH]nc(-c3ccn[nH]3)c2C1` [Compound 497] reads 100 to 500 nM; that for `O=C(Nc1cccc(Cl)c1)N1CCc2ncn(-c3ccccc3)c2C1` [Compound 542, N-(3-chlorophenyl)-3-phenyl-6,7-dihydro-4H-imidazo[4,5-c]pyridine-5-carboxamide], 500 to 1000 nM.
On the same count and under the same terms, under `Cn1ccc(-c2n[nH]c3c2CN(C(=O)Nc2cccc(Cl)c2)CC3)n1` [Compound 555] stands 100 to 500 nM; under `O=C(Nc1cccc(C2CC2)c1)N1CCc2[nH]nc(-c3ccccc3)c2C1` [Compound 556], 100 to 500 nM; under `N#Cc1cccc(NC(=O)N2CCc3[nH]nc(-c4ccccc4)c3C2)c1F` [Compound 559], 10 to 100 nM.
Regarding `N#Cc1cc(NC(=O)N2CCc3[nH]nc(-c4ccccc4)c3C2)ccc1F` [Compound 560], the EC50 was 10 to 100 nM.
On the same count and under the same terms, under `O=C(Nc1cccc(Cl)c1)N1CCc2[nH]nc(-c3ccsc3)c2C1` [Compound 562, N-(3-chlorophenyl)-3-(3-thienyl)-1,4,6,7-tetrahydropyrazolo[4,3-c]pyridine-5-carboxamide] stands 10 to 100 nM; under `O=C(Nc1cccc(Cl)c1)N1CCc2c(ncn2-c2ccccc2)C1` [Compound 583, N-(3-chlorophenyl)-1-phenyl-6,7-dihydro-4H-imidazo[4,5-c]pyridine-5-carboxamide], 1500 to 5000 nM.

Staying with this assay, now noted: Hepatitis B virus, HepG2.2.15, 144 h, read-out: Activity in BDNA-assay (activity at 10 μM).
With `COc1ccc(-c2n[nH]c3c2CN(C(=O)Nc2cccc(Cl)c2)CC3)cc1` [Compound 325, N-(3-chlorophenyl)-3-(4-methoxyphenyl)-1,4,6,7-tetrahydropyrazolo[4,3-c]pyridine-5-carboxamide], the inhibition at 10 µM was greater than 50%.

As a reminder, the EC50 is the concentration that produces a half-maximal response.
